{"source": "ChEMBL document CHEMBL5058643", "about": "“Data for DCP probe BI-2081” (2022)", "key": {"hERG (KCNH2)": {"target": "hERG (KCNH2) (Homo sapiens, UniProt Q12809)", "assay": "K+/HERG Eurofins SafetyScreen44 (BI)", "settings": "compound concentration 10 uM, read-out: % Ctrl; call rule not given here"}, "[1]": {"target": "T1, Alpha-1A adrenergic receptor (Homo sapiens) (UniProt P35348)", "T1 sequence (whole entry)": "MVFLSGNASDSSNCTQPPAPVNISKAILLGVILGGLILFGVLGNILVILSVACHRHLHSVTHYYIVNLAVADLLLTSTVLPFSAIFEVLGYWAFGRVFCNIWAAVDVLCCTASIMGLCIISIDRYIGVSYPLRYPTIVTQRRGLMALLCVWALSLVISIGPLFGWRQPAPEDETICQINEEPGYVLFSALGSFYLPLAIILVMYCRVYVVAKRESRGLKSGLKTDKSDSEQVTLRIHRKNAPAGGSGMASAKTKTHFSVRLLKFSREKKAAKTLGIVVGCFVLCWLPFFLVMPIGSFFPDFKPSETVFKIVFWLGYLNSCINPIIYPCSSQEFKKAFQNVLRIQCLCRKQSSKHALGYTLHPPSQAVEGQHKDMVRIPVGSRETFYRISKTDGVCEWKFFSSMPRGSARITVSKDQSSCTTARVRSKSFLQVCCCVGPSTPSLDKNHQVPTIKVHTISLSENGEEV", "assay": "ALPHA1A/R Eurofins SafetyScreen44 (BI)", "settings": "Rattus norvegicus; Compound concentration 10.0 uM"}, "[2]": {"target": "Neuropeptide Y receptor type 2 (Homo sapiens) (UniProt P49146)", "sequence (P49146 whole entry)": "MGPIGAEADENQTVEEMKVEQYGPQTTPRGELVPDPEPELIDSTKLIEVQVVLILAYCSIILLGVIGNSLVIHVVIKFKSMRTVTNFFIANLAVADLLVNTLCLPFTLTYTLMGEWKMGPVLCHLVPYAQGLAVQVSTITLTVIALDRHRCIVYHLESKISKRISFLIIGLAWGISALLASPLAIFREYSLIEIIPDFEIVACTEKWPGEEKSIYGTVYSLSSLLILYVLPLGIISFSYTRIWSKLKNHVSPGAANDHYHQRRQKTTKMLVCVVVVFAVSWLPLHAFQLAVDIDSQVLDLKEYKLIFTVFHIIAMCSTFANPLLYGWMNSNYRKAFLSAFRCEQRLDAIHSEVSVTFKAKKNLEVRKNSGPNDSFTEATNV", "assay": "Y2/HU Eurofins SafetyScreen44 (BI)", "settings": "Compound concentration 10.0 uM"}, "[3]": {"target": "Peroxisome proliferator-activated receptor gamma (Homo sapiens) (UniProt P37231)", "assay": "PPARG/H AG Eurofins SafetyScreen44 (BI)", "settings": "filed as agonist, Compound concentration 10.0 uM"}, "[4]": {"target": "Neuropeptide Y receptor type 1 (Homo sapiens) (UniProt P25929)", "sequence (P25929 whole entry)": "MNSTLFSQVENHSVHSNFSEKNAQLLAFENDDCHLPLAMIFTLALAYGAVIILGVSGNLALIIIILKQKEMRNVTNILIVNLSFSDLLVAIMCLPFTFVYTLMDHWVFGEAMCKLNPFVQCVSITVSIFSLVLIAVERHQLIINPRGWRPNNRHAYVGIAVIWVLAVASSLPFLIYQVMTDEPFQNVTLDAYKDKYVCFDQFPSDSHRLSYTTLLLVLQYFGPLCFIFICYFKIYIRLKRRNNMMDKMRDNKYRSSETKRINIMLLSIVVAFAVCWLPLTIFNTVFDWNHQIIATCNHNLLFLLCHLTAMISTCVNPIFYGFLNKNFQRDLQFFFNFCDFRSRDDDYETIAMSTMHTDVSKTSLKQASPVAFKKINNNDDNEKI", "assay": "Y1/HU Eurofins SafetyScreen44 (BI)", "settings": "Compound concentration 10.0 uM"}, "[5]": {"target": "5-hydroxytryptamine receptor 2B (Homo sapiens) (UniProt P41595)", "assay": "5HT2B/HU Eurofins SafetyScreen44 (BI)", "settings": "Compound concentration 10.0 uM"}, "[6]": {"target": "T2, Muscarinic acetylcholine receptor M1 (Homo sapiens) (UniProt P11229)", "T2 sequence (whole entry)": "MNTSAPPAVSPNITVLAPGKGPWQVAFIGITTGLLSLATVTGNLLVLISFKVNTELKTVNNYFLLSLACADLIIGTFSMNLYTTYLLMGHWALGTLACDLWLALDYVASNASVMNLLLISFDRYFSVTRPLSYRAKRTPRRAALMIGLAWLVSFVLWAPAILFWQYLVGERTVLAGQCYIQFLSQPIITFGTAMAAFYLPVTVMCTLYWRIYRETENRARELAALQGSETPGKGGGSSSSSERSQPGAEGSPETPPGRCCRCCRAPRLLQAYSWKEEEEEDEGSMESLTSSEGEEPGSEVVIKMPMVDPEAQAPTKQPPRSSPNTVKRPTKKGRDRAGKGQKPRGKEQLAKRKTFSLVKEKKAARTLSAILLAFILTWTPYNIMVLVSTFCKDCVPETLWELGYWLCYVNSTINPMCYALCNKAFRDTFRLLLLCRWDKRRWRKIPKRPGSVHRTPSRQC", "assay": "M1/HU Eurofins SafetyScreen44 (BI)", "settings": "Compound concentration 10.0 uM"}, "[7]": {"target": "Endothelin receptor type B (Homo sapiens) (UniProt P24530)", "sequence (P24530 whole entry)": "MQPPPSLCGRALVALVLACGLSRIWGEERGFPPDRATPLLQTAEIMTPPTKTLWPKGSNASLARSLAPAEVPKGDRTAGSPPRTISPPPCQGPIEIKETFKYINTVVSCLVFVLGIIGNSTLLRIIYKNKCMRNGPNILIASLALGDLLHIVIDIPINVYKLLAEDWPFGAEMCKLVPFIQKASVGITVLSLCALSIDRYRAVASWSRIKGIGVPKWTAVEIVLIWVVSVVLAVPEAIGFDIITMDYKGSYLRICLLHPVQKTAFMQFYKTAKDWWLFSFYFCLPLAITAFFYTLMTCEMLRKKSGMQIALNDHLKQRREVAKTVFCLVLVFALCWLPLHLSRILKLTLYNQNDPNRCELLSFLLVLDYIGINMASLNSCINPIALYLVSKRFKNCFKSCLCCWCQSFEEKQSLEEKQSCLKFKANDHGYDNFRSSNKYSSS", "assay": "ETB/HUM Eurofins SafetyScreen44 (BI)", "settings": "Compound concentration 10.0 uM"}, "[8]": {"target": "Muscarinic acetylcholine receptor M3 (Homo sapiens, UniProt P20309)", "sequence (P20309 whole entry)": "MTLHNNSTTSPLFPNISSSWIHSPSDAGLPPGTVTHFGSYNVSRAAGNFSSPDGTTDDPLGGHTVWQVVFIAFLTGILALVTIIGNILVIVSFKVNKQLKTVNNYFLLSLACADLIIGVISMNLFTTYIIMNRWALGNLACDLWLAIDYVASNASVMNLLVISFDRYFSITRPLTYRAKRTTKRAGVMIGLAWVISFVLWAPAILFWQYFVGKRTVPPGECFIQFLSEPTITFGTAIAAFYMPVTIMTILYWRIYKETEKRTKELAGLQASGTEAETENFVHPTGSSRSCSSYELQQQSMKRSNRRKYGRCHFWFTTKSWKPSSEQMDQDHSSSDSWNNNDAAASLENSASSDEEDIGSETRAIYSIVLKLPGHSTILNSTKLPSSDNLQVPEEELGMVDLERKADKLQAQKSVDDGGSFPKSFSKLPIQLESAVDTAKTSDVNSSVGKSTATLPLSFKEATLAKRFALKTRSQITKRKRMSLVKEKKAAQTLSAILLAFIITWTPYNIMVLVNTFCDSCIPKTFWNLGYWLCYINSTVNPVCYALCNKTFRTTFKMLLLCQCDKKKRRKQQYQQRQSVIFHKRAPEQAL", "assay": "GPCRScan assay: inhibition of M3", "parameters": "radioligand conc. used [nm] 0.3 – 1.0, parental cells stable CHO"}, "[9]": {"target": "T3, Thyroid hormone receptor alpha (Rattus norvegicus) (UniProt P63059)", "T3 sequence (whole entry)": "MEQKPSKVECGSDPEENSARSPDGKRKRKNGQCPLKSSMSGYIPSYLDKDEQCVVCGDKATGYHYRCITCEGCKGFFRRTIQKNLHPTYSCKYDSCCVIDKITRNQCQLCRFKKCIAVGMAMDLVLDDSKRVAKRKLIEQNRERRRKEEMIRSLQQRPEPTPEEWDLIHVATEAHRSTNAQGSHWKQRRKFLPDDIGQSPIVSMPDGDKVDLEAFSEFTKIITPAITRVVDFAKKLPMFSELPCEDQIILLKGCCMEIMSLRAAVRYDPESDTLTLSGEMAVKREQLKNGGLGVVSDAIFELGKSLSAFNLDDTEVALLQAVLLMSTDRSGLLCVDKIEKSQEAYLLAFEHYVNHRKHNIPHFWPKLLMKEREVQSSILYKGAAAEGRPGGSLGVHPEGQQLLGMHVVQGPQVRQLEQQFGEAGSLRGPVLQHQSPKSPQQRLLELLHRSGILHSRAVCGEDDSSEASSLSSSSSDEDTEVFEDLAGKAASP", "assay": "THYROID HORM Eurofins SafetyScreen44 (BI)"}, "[10]": {"target": "D(2) dopamine receptor (Homo sapiens) (UniProt P14416)", "assay": "D2S/HU Eurofins SafetyScreen44 (BI)", "settings": "Compound concentration 10.0 uM"}, "[11]": {"target": "T4, 5-hydroxytryptamine receptor 3A (Homo sapiens) (UniProt P46098)", "T4 sequence (whole entry)": "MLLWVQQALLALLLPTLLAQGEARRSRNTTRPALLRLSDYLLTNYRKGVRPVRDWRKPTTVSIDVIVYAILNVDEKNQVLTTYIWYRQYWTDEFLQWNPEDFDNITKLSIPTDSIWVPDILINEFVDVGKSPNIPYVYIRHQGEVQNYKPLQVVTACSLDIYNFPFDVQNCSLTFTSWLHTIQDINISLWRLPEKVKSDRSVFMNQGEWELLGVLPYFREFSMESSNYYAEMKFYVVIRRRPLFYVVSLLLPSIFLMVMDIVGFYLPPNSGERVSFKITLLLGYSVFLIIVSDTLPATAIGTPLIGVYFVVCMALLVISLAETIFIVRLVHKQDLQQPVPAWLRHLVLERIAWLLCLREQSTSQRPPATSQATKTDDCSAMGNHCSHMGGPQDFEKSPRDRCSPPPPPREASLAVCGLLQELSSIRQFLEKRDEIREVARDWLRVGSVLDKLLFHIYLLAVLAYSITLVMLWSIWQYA", "assay": "5HT3/HU Eurofins SafetyScreen44 (BI)", "settings": "Compound concentration 10.0 uM"}, "[12]": {"target": "cGMP-inhibited 3',5'-cyclic phosphodiesterase 3A (Homo sapiens) (UniProt Q14432)", "assay": "PDE3A Eurofins SafetyScreen44 (BI)", "settings": "Compound concentration 10.0 uM"}, "[13]": {"target": "Glucocorticoid receptor (Homo sapiens) (UniProt P04150)", "sequence (P04150 whole entry)": "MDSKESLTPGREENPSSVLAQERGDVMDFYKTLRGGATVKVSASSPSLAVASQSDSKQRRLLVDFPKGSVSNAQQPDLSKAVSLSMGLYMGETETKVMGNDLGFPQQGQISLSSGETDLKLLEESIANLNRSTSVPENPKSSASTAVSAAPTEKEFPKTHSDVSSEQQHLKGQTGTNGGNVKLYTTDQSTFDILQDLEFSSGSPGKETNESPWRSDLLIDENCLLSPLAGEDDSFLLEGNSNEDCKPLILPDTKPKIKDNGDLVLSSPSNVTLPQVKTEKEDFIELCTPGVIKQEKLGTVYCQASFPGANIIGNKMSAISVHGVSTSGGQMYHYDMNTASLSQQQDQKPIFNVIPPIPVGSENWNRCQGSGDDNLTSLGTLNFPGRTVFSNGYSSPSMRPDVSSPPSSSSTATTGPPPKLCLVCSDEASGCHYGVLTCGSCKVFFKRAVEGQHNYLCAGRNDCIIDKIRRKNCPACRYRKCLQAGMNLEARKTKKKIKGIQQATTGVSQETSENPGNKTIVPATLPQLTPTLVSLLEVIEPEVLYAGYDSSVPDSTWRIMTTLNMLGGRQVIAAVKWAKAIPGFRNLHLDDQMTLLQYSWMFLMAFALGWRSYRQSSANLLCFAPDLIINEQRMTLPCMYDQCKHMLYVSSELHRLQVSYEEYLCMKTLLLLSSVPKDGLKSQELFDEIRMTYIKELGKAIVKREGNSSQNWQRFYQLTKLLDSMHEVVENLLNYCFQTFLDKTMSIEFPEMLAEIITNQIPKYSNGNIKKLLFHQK", "assay": "GCORTICOID/H Eurofins SafetyScreen44 (BI)", "settings": "Compound concentration 10.0 uM"}, "[14]": {"target": "T2, Muscarinic acetylcholine receptor M1 (Homo sapiens)", "assay": "M1/H Eurofins SafetyScreen44 (BI)", "settings": "Compound concentration 10.0 uM"}, "[15]": {"target": "Sodium-dependent dopamine transporter (Homo sapiens) (UniProt Q01959)", "sequence (Q01959 whole entry)": "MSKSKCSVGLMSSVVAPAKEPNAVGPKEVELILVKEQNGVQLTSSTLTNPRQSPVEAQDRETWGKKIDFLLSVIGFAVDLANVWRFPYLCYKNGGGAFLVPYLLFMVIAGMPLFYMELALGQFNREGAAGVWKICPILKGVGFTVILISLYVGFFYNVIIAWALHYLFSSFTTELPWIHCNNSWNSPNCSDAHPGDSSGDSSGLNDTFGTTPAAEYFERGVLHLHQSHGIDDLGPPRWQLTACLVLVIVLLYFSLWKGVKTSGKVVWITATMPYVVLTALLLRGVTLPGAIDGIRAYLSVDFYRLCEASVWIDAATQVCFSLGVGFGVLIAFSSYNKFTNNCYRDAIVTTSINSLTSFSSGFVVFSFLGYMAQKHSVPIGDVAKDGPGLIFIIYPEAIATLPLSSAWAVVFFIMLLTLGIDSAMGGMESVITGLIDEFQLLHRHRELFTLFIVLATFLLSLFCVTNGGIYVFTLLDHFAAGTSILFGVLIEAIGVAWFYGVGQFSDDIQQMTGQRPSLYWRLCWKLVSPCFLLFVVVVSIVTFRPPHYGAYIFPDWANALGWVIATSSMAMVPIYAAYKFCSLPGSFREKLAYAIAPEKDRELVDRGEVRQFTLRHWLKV", "assay": "DATRANS/HUM Eurofins SafetyScreen44 (BI)", "settings": "Compound concentration 10.0 uM"}, "[16]": {"target": "3',5'-cyclic-AMP phosphodiesterase 4D (Homo sapiens) (UniProt Q08499)", "assay": "PDE4D2 Eurofins SafetyScreen44 (BI)", "settings": "Compound concentration 10.0 uM"}, "[17]": {"target": "Glutamate receptor ionotropic, NMDA 2A (Rattus norvegicus) (UniProt Q00959)", "sequence (Q00959 23-1464 limits assumed)": "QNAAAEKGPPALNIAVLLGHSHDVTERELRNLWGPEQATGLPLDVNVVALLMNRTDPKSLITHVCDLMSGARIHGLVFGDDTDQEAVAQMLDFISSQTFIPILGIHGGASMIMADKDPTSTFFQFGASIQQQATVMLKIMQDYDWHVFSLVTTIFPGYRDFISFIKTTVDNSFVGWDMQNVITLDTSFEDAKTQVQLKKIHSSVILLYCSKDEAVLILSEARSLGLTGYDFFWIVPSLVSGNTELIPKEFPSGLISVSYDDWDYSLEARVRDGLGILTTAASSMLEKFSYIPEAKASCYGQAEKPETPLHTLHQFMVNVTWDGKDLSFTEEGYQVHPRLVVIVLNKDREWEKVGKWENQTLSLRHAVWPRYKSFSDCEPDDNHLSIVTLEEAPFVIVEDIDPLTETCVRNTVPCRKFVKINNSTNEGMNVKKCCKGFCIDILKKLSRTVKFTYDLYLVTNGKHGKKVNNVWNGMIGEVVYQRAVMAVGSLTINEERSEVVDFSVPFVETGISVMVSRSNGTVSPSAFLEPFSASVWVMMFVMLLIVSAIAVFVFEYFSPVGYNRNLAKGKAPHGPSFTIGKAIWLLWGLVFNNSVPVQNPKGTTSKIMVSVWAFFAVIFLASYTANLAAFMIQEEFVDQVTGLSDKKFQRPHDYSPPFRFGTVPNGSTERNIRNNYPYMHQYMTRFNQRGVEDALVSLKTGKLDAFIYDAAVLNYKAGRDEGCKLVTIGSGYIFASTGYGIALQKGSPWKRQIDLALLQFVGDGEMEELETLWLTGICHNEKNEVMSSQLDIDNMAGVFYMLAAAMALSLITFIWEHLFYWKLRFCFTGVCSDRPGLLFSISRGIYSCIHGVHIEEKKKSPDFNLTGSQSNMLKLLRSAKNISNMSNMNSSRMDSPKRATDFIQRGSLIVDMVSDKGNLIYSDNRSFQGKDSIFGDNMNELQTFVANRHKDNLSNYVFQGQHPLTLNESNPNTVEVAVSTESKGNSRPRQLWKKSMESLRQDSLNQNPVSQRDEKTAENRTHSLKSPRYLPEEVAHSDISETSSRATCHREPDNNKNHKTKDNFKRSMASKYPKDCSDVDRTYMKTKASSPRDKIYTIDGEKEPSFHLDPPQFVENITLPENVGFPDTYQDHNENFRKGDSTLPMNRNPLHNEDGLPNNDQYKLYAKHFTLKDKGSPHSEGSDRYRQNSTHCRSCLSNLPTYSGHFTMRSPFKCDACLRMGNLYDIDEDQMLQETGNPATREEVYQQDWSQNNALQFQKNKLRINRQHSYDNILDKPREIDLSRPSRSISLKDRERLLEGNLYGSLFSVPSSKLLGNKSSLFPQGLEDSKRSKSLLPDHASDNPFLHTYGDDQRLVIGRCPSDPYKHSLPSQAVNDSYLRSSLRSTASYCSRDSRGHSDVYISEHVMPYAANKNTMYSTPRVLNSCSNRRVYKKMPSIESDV", "assay": "NMDA/R Eurofins SafetyScreen44 (BI)", "settings": "Compound concentration 10.0 uM"}}}
{"smiles": "Cc1cc(OCCC(C)(C)O)cc(C)c1-c1ccc(F)c2c1CC[C@H]2Oc1ccc2c(c1)OC[C@H]2CC(=O)O", "values": [{"measurement": "activity at 10 µM", "setting": "hERG (KCNH2)", "result": "80% (not active)"}, {"measurement": "residual activity", "setting": "[1]", "result": 73, "unit": "%"}, {"measurement": "residual activity", "setting": "[2]", "result": 99, "unit": "%"}, {"measurement": "residual activity", "setting": "[3]", "result": 8, "unit": "%"}, {"measurement": "residual activity", "setting": "[4]", "result": 108, "unit": "%"}, {"measurement": "residual activity", "setting": "[5]", "result": 82, "unit": "%"}, {"measurement": "residual activity", "setting": "[6]", "result": 83, "unit": "%"}, {"measurement": "residual activity", "setting": "[7]", "result": 63, "unit": "%"}, {"measurement": "Ki", "setting": "[8]", "result": "> 10", "unit": "µM"}, {"measurement": "pKi", "setting": "[8]", "result": "< 5"}, {"measurement": "residual activity", "setting": "[9]; Compound concentration 0.3 uM", "result": 97, "unit": "%"}, {"measurement": "residual activity", "setting": "[9]; Compound concentration 1.0 uM", "result": 95, "unit": "%"}, {"measurement": "residual activity", "setting": "[9]; Compound concentration 3.0 uM", "result": 77, "unit": "%"}, {"measurement": "residual activity", "setting": "[9]; Compound concentration 10.0 uM", "result": 39.5, "unit": "%"}, {"measurement": "residual activity", "setting": "[9]; Compound concentration 30.0 uM", "result": 2, "unit": "%"}, {"measurement": "residual activity", "setting": "[10]", "result": 100, "unit": "%"}, {"measurement": "residual activity", "setting": "[11]", "result": 100, "unit": "%"}]}
{"smiles": "COCCCS(=O)(=O)c1cc(C)c(-c2ccc(F)c3c2CC[C@H]3Oc2ccc3c(c2)OC[C@H]3CC(=O)O)c(C)c1", "values": [{"measurement": "residual activity", "setting": "[12]", "result": 100, "unit": "%"}, {"measurement": "residual activity", "setting": "[13]", "result": 43, "unit": "%"}, {"measurement": "residual activity", "setting": "[14]", "result": 112, "unit": "%"}, {"measurement": "residual activity", "setting": "[15]", "result": 84, "unit": "%"}, {"measurement": "residual activity", "setting": "[16]", "result": 103, "unit": "%"}, {"measurement": "residual activity", "setting": "[17]", "result": 87, "unit": "%"}]}
